Source: ChEMBL document CHEMBL1201862, “PubChem BioAssay data set” (2004)
“And” between values parts separate entries of the source, which are not always exact repeats. Identical values can stand only once.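 Protocol summary: plate cells (96-well), add compound at 5 concentrations, incubate 48 h, interpolate endpoints linearly. At the GI50, growth is halved.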 The source made the active and inactive calls. Rule as the data show it: active = GI50 up to about 1.1 µM and inactive = higher.

Tests used:
Assay in all cases: NCI tumour cell line growth inhibition, 48 h
HOP-92 = tested on: HOP-92
IGROV-1 = tested on: IGROV-1
RXF 393 = tested on: RXF 393
SNB-75 = tested on: SNB-75
TK-10 = tested on: TK-10
UACC-257 = tested on: UACC-257
A498 = tested on: A498
A549 = tested on: A549
ACHN = tested on: ACHN
CAKI-1 = tested on: CAKI-1
COLO 205 = tested on: COLO 205
DU-145 = tested on: DU-145
EKVX = tested on: EKVX
HCT-116 = tested on: HCT-116
HCT-15 = tested on: HCT-15
HT-29 = tested on: HT-29
KM12 = tested on: KM12
M14 = tested on: M14
MDA-MB-231 = tested on: MDA-MB-231
MDA-MB-435 = tested on: MDA-MB-435
MDA-N = tested on: MDA-N
NCI-H226 = tested on: NCI-H226
NCI-H23 = tested on: NCI-H23
NCI/ADR-RES = tested on: NCI/ADR-RES
OVCAR-3 = tested on: OVCAR-3
OVCAR-4 = tested on: OVCAR-4
OVCAR-5 = tested on: OVCAR-5
OVCAR-8 = tested on: OVCAR-8
PC-3 = tested on: PC-3
SF-268 = tested on: SF-268
SF-295 = tested on: SF-295
SF-539 = tested on: SF-539
SK-MEL-28 = tested on: SK-MEL-28
SK-MEL-5 = tested on: SK-MEL-5
SN12C = tested on: SN12C
SNB-19 = tested on: SNB-19
SW-620 = tested on: SW-620
U-251 = tested on: U-251
UO-31 = tested on: UO-31
786-0 = tested on: 786-0
CCRF-CEM = tested on: CCRF-CEM
HCC 2998 = tested on: HCC 2998
HL-60 = tested on: HL-60
HOP-62 = tested on: HOP-62
Hs-578T = tested on: Hs-578T
K562 = tested on: K562
LOX IMVI = tested on: LOX IMVI
MCF7 = tested on: MCF7
MOLT-4 = tested on: MOLT-4
NCI-H460 = tested on: NCI-H460
RPMI-8226 = tested on: RPMI-8226
SR = tested on: SR
UACC-62 = tested on: UACC-62
Malme-3M = tested on: Malme-3M
NCI-H522 = tested on: NCI-H522
SK-MEL-2 = tested on: SK-MEL-2
SK-OV-3 = tested on: SK-OV-3
T47D = tested on: T47D

COC(=O)/C=C/c1cc(OC)c2c(c1)C(C(=O)OC)C(c1ccc(OC)c(OC)c1)O2 (stereo not drawn)
GI50 (HOP-92): 55.8 µM (inactive) and > 88.3 µM (inactive)
GI50 (IGROV-1): 2.27 µM (inactive)
GI50 (RXF 393): 4.94 µM (inactive)
GI50 (SNB-75): 1.95 µM (inactive)
GI50 (TK-10): > 100 µM (inactive)
GI50 (UACC-257): > 100 µM (inactive)

CC(=O)N1C(=O)CC2(N=C(C)CC2=O)c2ccccc21 (stereo not drawn)
GI50 (A498): > 10 µM (inactive)
GI50 (A549): > 10 µM (inactive)
GI50 (ACHN): > 10 µM (inactive)
GI50 (CAKI-1): > 10 µM (inactive)
GI50 (COLO 205): > 10 µM (inactive)
GI50 (DU-145): > 10 µM (inactive)
GI50 (EKVX): > 10 µM (inactive)
GI50 (HCT-116): > 10 µM (inactive)
GI50 (HCT-15): > 10 µM
GI50 (HOP-92): > 10 µM (inactive)
GI50 (HT-29): > 10 µM (inactive)
GI50 (IGROV-1): > 10 µM (inactive)
GI50 (KM12): > 10 µM (inactive)
GI50 (M14): > 10 µM (inactive)
GI50 (MDA-MB-231): > 10 µM (inactive)
GI50 (MDA-MB-435): > 10 µM (inactive)
GI50 (MDA-N): > 10 µM (inactive)
GI50 (NCI-H226): > 10 µM (inactive)
GI50 (NCI-H23): > 10 µM (inactive)
GI50 (NCI/ADR-RES): > 10 µM (inactive)
GI50 (OVCAR-3): > 10 µM (inactive)
GI50 (OVCAR-4): > 10 µM (inactive)
GI50 (OVCAR-5): > 10 µM (inactive)
GI50 (OVCAR-8): > 10 µM (inactive)
GI50 (PC-3): > 10 µM (inactive)
GI50 (RXF 393): > 10 µM (inactive)
GI50 (SF-268): > 10 µM (inactive)
GI50 (SF-295): > 10 µM (inactive)
GI50 (SF-539): 0.0132 µM (active)
GI50 (SK-MEL-28): > 10 µM (inactive)
GI50 (SK-MEL-5): > 10 µM (inactive)
GI50 (SN12C): > 10 µM (inactive)
GI50 (SNB-19): > 10 µM (inactive)
GI50 (SNB-75): > 10 µM (inactive)
GI50 (SW-620): > 10 µM (inactive)
GI50 (TK-10): > 10 µM (inactive)
GI50 (U-251): > 10 µM (inactive)
GI50 (UO-31): 1.49 µM (inactive)

O=c1[nH]c(=O)n(CCOc2ccc(Cl)cc2)cc1Nc1ccccc1
GI50 (786-0): 44.3 µM (inactive)
GI50 (A498): > 100 µM (inactive)
GI50 (A549): > 100 µM (inactive)
GI50 (ACHN): > 100 µM (inactive)
GI50 (CAKI-1): > 100 µM (inactive)
GI50 (CCRF-CEM): > 100 µM (inactive)
GI50 (COLO 205): > 100 µM (inactive)
GI50 (DU-145): > 100 µM (inactive)
GI50 (EKVX): 71 µM (inactive)
GI50 (HCC 2998): > 100 µM (inactive)
GI50 (HCT-116): > 100 µM (inactive)
GI50 (HCT-15): > 100 µM
GI50 (HL-60): > 100 µM (inactive)
GI50 (HOP-62): > 100 µM (inactive)
GI50 (HOP-92): > 100 µM (inactive)
GI50 (HT-29): > 100 µM (inactive)
GI50 (Hs-578T): 29.2 µM (inactive)
GI50 (IGROV-1): > 100 µM (inactive)
GI50 (K562): > 100 µM (inactive)
GI50 (KM12): > 100 µM (inactive)
GI50 (LOX IMVI): > 100 µM (inactive)
GI50 (M14): > 100 µM (inactive)
GI50 (MCF7): > 100 µM (inactive)
GI50 (MDA-MB-435): > 100 µM (inactive)
GI50 (MDA-N): > 100 µM (inactive)
GI50 (MOLT-4): > 100 µM (inactive)
GI50 (NCI-H23): > 100 µM (inactive)
GI50 (NCI-H460): > 100 µM (inactive)
GI50 (NCI/ADR-RES): > 100 µM (inactive)
GI50 (OVCAR-3): 85.3 µM (inactive)
GI50 (OVCAR-4): 49 µM (inactive)
GI50 (OVCAR-5): > 100 µM (inactive)
GI50 (PC-3): > 100 µM (inactive)
GI50 (RPMI-8226): > 100 µM (inactive)
GI50 (RXF 393): > 100 µM (inactive)
GI50 (SF-268): 39.9 µM (inactive)
GI50 (SF-295): 12.4 µM (inactive)
GI50 (SK-MEL-28): > 100 µM (inactive)
GI50 (SK-MEL-5): > 100 µM (inactive)
GI50 (SN12C): > 100 µM (inactive)
GI50 (SNB-19): > 100 µM (inactive)
GI50 (SR): > 100 µM (inactive)
GI50 (SW-620): > 100 µM (inactive)
GI50 (U-251): > 100 µM (inactive)
GI50 (UACC-257): > 100 µM (inactive)
GI50 (UACC-62): > 100 µM (inactive)
GI50 (UO-31): 58.5 µM (inactive)

CCOC(=O)[C@@]12C3C=CC(CC3)[C@]1(C(=O)c1ccccc1)C(=O)C(=O)N2c1ccccc1 (stereo partly drawn)
GI50 (786-0): > 100 µM (inactive)
GI50 (A498): > 100 µM (inactive)
GI50 (A549): > 100 µM (inactive)
GI50 (ACHN): > 100 µM (inactive)
GI50 (CAKI-1): > 100 µM (inactive)
GI50 (COLO 205): > 100 µM (inactive)
GI50 (DU-145): > 100 µM (inactive)
GI50 (HCC 2998): > 100 µM (inactive)
GI50 (HCT-116): > 100 µM (inactive)
GI50 (HCT-15): > 100 µM
GI50 (HOP-62): > 100 µM (inactive)
GI50 (HOP-92): > 100 µM (inactive)
GI50 (HT-29): > 100 µM (inactive)
GI50 (K562): > 100 µM (inactive)
GI50 (KM12): > 100 µM (inactive)
GI50 (M14): > 100 µM (inactive)
GI50 (MCF7): > 100 µM (inactive)
GI50 (MDA-MB-231): > 100 µM (inactive)
GI50 (MDA-MB-435): > 100 µM (inactive)
GI50 (MDA-N): > 100 µM (inactive)
GI50 (MOLT-4): > 100 µM (inactive)
GI50 (Malme-3M): > 100 µM (inactive)
GI50 (NCI-H23): > 100 µM (inactive)
GI50 (NCI-H460): > 100 µM (inactive)
GI50 (NCI-H522): > 100 µM (inactive)
GI50 (NCI/ADR-RES): > 100 µM (inactive)
GI50 (OVCAR-3): > 100 µM (inactive)
GI50 (OVCAR-4): > 100 µM (inactive)
GI50 (OVCAR-5): > 100 µM (inactive)
GI50 (OVCAR-8): > 100 µM (inactive)
GI50 (PC-3): > 100 µM (inactive)
GI50 (RPMI-8226): > 100 µM (inactive)
GI50 (RXF 393): > 100 µM (inactive)
GI50 (SF-268): > 100 µM (inactive)
GI50 (SF-295): > 100 µM (inactive)
GI50 (SF-539): > 100 µM (inactive)
GI50 (SK-MEL-28): > 100 µM (inactive)
GI50 (SK-MEL-2): > 100 µM (inactive)
GI50 (SK-MEL-5): > 100 µM (inactive)
GI50 (SK-OV-3): > 100 µM (inactive)
GI50 (SN12C): > 100 µM (inactive)
GI50 (SNB-19): > 100 µM (inactive)
GI50 (SR): > 100 µM (inactive)
GI50 (SW-620): > 100 µM (inactive)
GI50 (T47D): > 100 µM (inactive)
GI50 (TK-10): > 100 µM (inactive)
GI50 (U-251): > 100 µM (inactive)
GI50 (UACC-62): 97.3 µM (inactive)
GI50 (UO-31): > 100 µM (inactive)

O=C(N/N=C/c1cc(Cl)cc(Cl)c1O)c1ccccc1O
GI50 (ACHN): 0.346 µM (active)
GI50 (CAKI-1): 0.723 µM (active)
GI50 (HCC 2998): 3.18 µM (inactive)
GI50 (HCT-15): 0.395 µM
GI50 (HL-60): 0.175 µM (active)
GI50 (HOP-62): 1.67 µM (inactive)
GI50 (HT-29): 3.49 µM (inactive)
GI50 (IGROV-1): 1.69 µM (inactive)
GI50 (K562): 0.519 µM (active)
GI50 (LOX IMVI): 0.303 µM (active)
GI50 (M14): 0.521 µM (active)
GI50 (NCI-H226): 1.37 µM (inactive)
GI50 (NCI-H460): 0.537 µM (active)
GI50 (NCI-H522): 0.254 µM (active)
GI50 (OVCAR-3): 0.282 µM (active)
GI50 (OVCAR-4): 0.22 µM (active)
GI50 (OVCAR-5): 2.53 µM (inactive)
GI50 (OVCAR-8): 0.344 µM (active)
GI50 (RXF 393): 1.31 µM (inactive)
GI50 (SF-268): 0.351 µM (active)
GI50 (SF-295): 0.526 µM (active)
GI50 (SK-MEL-28): 1 µM (active)
GI50 (SK-MEL-5): 1.28 µM (inactive)
GI50 (SK-OV-3): 0.929 µM (active)
GI50 (SNB-19): 1.91 µM (inactive)
GI50 (SNB-75): 3.05 µM (inactive)
GI50 (SR): 0.281 µM (active)
GI50 (SW-620): 0.735 µM (active)
GI50 (TK-10): 3.06 µM (inactive)
GI50 (U-251): 0.445 µM (active)
GI50 (UACC-257): 1.63 µM (inactive)
GI50 (UACC-62): 0.254 µM (active)
GI50 (UO-31): 1.69 µM (inactive)
